“And” between values parts separate entries of the source, which are not always exact repeats. Identical values can stand only once.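 48-hour exposure; five concentrations; linearly interpolated endpoints. GI50 = concentration required for 50% inhibition of growth. TGI marks complete inhibition of growth.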
Key:
Assay in all cases: DTP human tumour cell line panel, 48 h
DU-145 prostate = test system: DU-145 prostate
MCF7 breast = test system: MCF7 breast
SF-539 CNS = test system: SF-539 CNS
CAKI-1 renal = test system: CAKI-1 renal
SK-MEL-2 melanoma = test system: SK-MEL-2 melanoma
A498 renal = test system: A498 renal
UACC-62 melanoma = test system: UACC-62 melanoma
HT29 colon = test system: HT29 colon
M14 melanoma = test system: M14 melanoma
SR leukemia = test system: SR leukemia

| Compound | GI50 (DU-145 prostate) | TGI (DU-145 prostate) | GI50 (MCF7 breast) | TGI (MCF7 breast) | GI50 (SF-539 CNS) | TGI (SF-539 CNS) | GI50 (CAKI-1 renal) | TGI (CAKI-1 renal) | GI50 (SK-MEL-2 melanoma) | GI50 (A498 renal) | GI50 (UACC-62 melanoma) | TGI (UACC-62 melanoma) | GI50 (HT29 colon) | TGI (HT29 colon) | GI50 (M14 melanoma) | TGI (M14 melanoma) | GI50 (SR leukemia) | TGI (SR leukemia) | TGI (SK-MEL-2 melanoma) | TGI (A498 renal) |
| --- | --- | --- | --- | --- | --- | --- | --- | --- | --- | --- | --- | --- | --- | --- | --- | --- | --- | --- | --- | --- |
| CC(=O)Oc1ccccc1C(=O)Nc1ncc([N+](=O)[O-])s1 | 4.51 µM | > 100 µM | 2.26 µM | 10.3 µM and > 100 µM | 2.9 µM | 20.6 µM and > 100 µM | 2.64 µM | > 100 µM | 2.05 µM | 0.245 µM | 1.23 µM | 6.71 µM and > 47.3 µM | 3.37 µM | 13.5 µM and 97.5 µM | 2.54 µM | 7.23 µM and 55.9 µM | 2.32 µM | 7.99 µM |  |  |
| N#Cc1c(N/N=C/c2ccc(Cl)cc2Cl)nc(N)nc1N1CCCC1 | 10.7 µM | > 100 µM | > 100 µM | > 100 µM | 22.8 µM | > 100 µM | 21.7 µM | 63.2 µM | 72.3 µM | 19.5 µM | 25.6 µM | 84.2 µM | 37.1 µM | > 100 µM | 44.2 µM | > 100 µM | 10.7 µM | 42.9 µM | > 100 µM | 36.1 µM |
| COC(=O)[C@@H](C)C[C@H](Cc1ccccc1)NC(=O)c1csc([C@@H](C[C@H](C(C)C)N(C)C(=O)[C@@H](NC(=O)[C@H]2CCCCN2C)C2CCCCC2)OC(C)=O)n1 | 0.000291 µM and 0.0025 µM |  |  | > 25 µM | 0.00211 µM and 0.0025 µM | 0.00619 µM and 0.00859 µM |  |  |  | 0.000272 µM and 0.0025 µM | 0.000354 µM and 0.0025 µM | > 25 µM | 0.000314 µM and 0.0025 µM | 4.95 µM | 0.000304 µM and < 0.0025 µM | 0.00312 µM and < 0.0025 µM | 0.000274 µM and 0.0025 µM | 2.9 µM |  |  |
| O=C(O)CC(NC(=O)CP(=O)(O)O)C(=O)O (stereo not given) |  | > 10000 µM |  | > 10000 µM | 89.5 µM | > 10000 µM | 272 µM | 7240 µM |  |  |  | 6640 µM |  | > 10000 µM |  | > 10000 µM |  |  | > 10000 µM | > 9870 µM |
| O=CN1CCN(CC(O)CN2CCCCC2)CC1 (stereo not given) |  | > 100 µM |  | > 100 µM |  |  |  | > 100 µM |  |  |  | > 100 µM |  | > 100 µM |  | > 100 µM |  | > 100 µM | > 100 µM | > 100 µM |
| CSc1ccc2c(c1)C(=O)c1c-2n(CCCBr)c(=O)c2cc([N+](=O)[O-])ccc12 | 3.9 µM | > 100 µM | 1.58 µM | > 100 µM | 4.59 µM | > 100 µM | 1.09 µM | 8.94 µM | > 100 µM | 8.32 µM | 3.1 µM | > 100 µM | 28.2 µM | > 100 µM | 3.38 µM | > 100 µM |  |  | > 100 µM | 96.4 µM |
| CCOC(=O)/C=C(/C)Sc1cc(O)c2ccccc2c1O | 1.86 µM | 3.44 µM | 1.54 µM | 3.59 µM | 4.84 µM | 11.7 µM | 7.33 µM | 20 µM |  | 22.8 µM | 3.67 µM | 14 µM | 19.2 µM | 48.4 µM | 1.76 µM | 3.48 µM | 1.3 µM | 4.16 µM |  | 56.3 µM |
| O=C1c2ccccc2-c2c1c1ccccc1c(=O)n2CCCCl | 6.22 µM | > 100 µM | 2.18 µM | 62.4 µM | 4.11 µM | 21.5 µM | 3.63 µM | 19.1 µM | 47.4 µM | 7.88 µM | 6.75 µM | 23.9 µM | 37.2 µM | > 100 µM | 35.5 µM | > 100 µM |  |  | > 100 µM | 28.5 µM |

Reference: PubChem BioAssay (NCI)
